# Assays:
# Type in all cases: cell-based
# [1] = test system: Pseudomonus aeruginosa GN1036; experiment: Minimum inhibitory concentration against Pseudomonus aeruginosa GN1036; conditions: Pseudomonas aeruginosa
# [2] = test system: Staphylococcus aureus JC-1; experiment: Minimum inhibitory concentration against Staphylococcus aureus JC-1; conditions: JC1
# [3] = test system: Pseudomonus aeruginsoa Y-1; experiment: Minimum inhibitory concentration against Pseudomonus aeruginsoa Y-1; conditions: Pseudomonas aeruginosa, Y1
# Proteus vulgaris GN-76 = experiment: Minimum inhibitory concentration against Proteus vulgaris GN-76; conditions: GN76
# Escherichia coli JC-2 = experiment: Minimum inhibitory concentration against Escherichia coli JC-2; conditions: JC2
# [4] = test system: Klebsiella pneumoniae KC-1; experiment: Minimum inhibitory concentration against Klebsiella pneumoniae KC-1; conditions: KC1
SMILES,MIC [1] [µg/mL],MIC [2] [µg/mL],MIC [3] [µg/mL],MIC (Proteus vulgaris GN-76) [µg/mL],MIC (Escherichia coli JC-2) [µg/mL],MIC [4] [µg/mL]
"CO/N=C(\C(=O)N[C@@H]1C(=O)N2C(C(=O)O)=C(COC(C)=O)CS[C@H]12)c1csc(N)n1 [Cefotaxime, reference compound]",12.5,6.25,12.5,0.05,0.1,
"CC(=O)OCC1=C(C(=O)O)N2C(=O)[C@@H](NC(=O)/C(=N\OCC(=O)c3ccc(OC(C)=O)c(OC(C)=O)c3)c3coc(N)n3)[C@H]2SC1 [Example 1, 7β-[2-(2-aminooxazol-4-yl)-2-Z-(3,4-diacetoxybenzoylmethoxyimino)acetamido]cephalosporanic acid]",0.78,3.12,0.1,1.56,0.78,0.2
"CC(=O)Oc1ccc(C(=O)O/N=C(\C(=O)N[C@@H]2C(=O)N3C(C(=O)O)=C(CSc4nnc(C)s4)CS[C@H]23)c2coc(N)n2)cc1OC(C)=O [Example 6, 7β-[2-(2-aminooxazol-4-yl)-2-Z-(3,4-diacetoxybenzoyloxyimino)acetamido]-3-(2-methyl-1,3,4-thiadiazol-5-yl)thiomethyl-3-cephem-4-carboxylic acid]",0.39,3.12,0.1,0.2,0.2,0.05
"CC(=O)OCC1=C(C(=O)O)N2C(=O)[C@@H](NC(=O)/C(=N\OC(=O)c3ccc(OC(C)=O)c(OC(C)=O)c3)c3coc(N)n3)[C@H]2SC1 [Example 4, 7β-[2-(2-aminooxazol-4-yl)-2-Z-(3,4-diacetoxybenzoyloxyimino)acetamido]cephalosporanic acid]",0.78,1.56,0.1,0.39,0.2,0.2
"CC(=O)Oc1ccc(C(=O)O/N=C(\C(=O)N[C@@H]2C(=O)N3C(C(=O)O)=C(CSc4nnnn4CC(=O)O)CS[C@H]23)c2coc(N)n2)cc1OC(C)=O [Example 7, 7β-[2-(2-aminooxazol-4-yl)-2-Z-(3,4-diacetoxybenzoyloxyimino)acetamido]-3-(1-carboxymethyl-1H-tetrazol-5-yl)thiomethyl-3-cephem-4-carboxylic acid]",0.05,12.5,< 0.05,0.1,0.05,< 0.05
"CC(=O)Oc1cc(C(=O)O/N=C(\C(=O)N[C@@H]2C(=O)N3C(C(=O)O)=C(CSc4nnnn4CC(=O)O)CS[C@H]23)c2coc(N)n2)cc(OC(C)=O)c1OC(C)=O [Example 10, 7β-[2-(2-aminooxazol-4-yl)-2-Z-(3,4,5-triacetoxybenzoyloxyimino)acetamido]-3-(1-carboxymethyl-1H-tetrazol-5-yl)thiomethyl-3-cephem-4-carboxylic acid]",0.39,6.25,0.1,0.05,0.05,0.2
"CC(=O)Oc1ccc(C(=O)CO/N=C(\C(=O)N[C@@H]2C(=O)N3C(C(=O)O)=C(CSc4nnnn4CC(=O)O)CS[C@H]23)c2coc(N)n2)cc1OC(C)=O [Example 3, 7β-[2-(2-aminooxazol-4-yl)-2-Z-(3,4-diacetoxybenzoylmethoxyimino)]acetamido-3-(1-carboxymethyl-1H-tetrazol-5-yl)thiomethyl-3-cephem-4-carboxylicacid]",0.2,12.5,< 0.05,1.56,0.2,0.05
"CC(=O)Oc1cc(C(=O)O/N=C(\C(=O)N[C@@H]2C(=O)N3C(C(=O)O)=C(CSc4nnnn4C)CS[C@H]23)c2coc(N)n2)cc(OC(C)=O)c1OC(C)=O [Example 8, 7β-[2-(2-aminooxazol-4-yl)-2-Z-(3,4,5-triacetoxybenzoyloxyimino)acetamido]-3-(1-methyl-1H-tetrazol-5-yl)thiomethyl-3-cephem-4-carboxylic acid]",0.39,1.56,0.1,0.39,0.1,0.1
"CC(=O)Oc1ccc(C(=O)CO/N=C(\C(=O)N[C@@H]2C(=O)N3C(C(=O)O)=C(CSc4nnnn4C)CS[C@H]23)c2coc(N)n2)cc1OC(C)=O [Example 2, 7β-[2-(2-aminooxazol-4-yl)-2-Z-(3,4-diacetoxybenzoylmethoxyimino)acetamido]-3-(1-methyl-1H-tetrazol-5-yl)thiomethyl-3-cephem-4-carboxylic acid]",0.2,3.12,0.05,1.56,0.2,0.05
"CC(=O)Oc1ccc(C(=O)O/N=C(\C(=O)N[C@@H]2C(=O)N3C(C(=O)O)=C(CSc4nnnn4C)CS[C@H]23)c2coc(N)n2)cc1OC(C)=O [Example 5, 7β-[2-(2-aminooxazol-4-yl)-2-Z-(3,4-diacetoxybenzoyloxyimino)acetamido]-3-(1-methyl-1H-tetrazol-5-yl)thiomethyl-3-cephem-4-carboxylic acid]",0.39,1.56,0.1,0.39,0.39,0.2
"CCOC(=O)Oc1ccc(C(=O)O/N=C(\C(=O)N[C@@H]2C(=O)N3C(C(=O)O)=C(CSc4nnnn4C)CS[C@H]23)c2coc(N)n2)cc1OC(=O)OCC [Example 9, 7β-[2-(2-aminooxazol-4-yl)-2-Z-(3,4-diethoxycarbonyloxybenzoyloxyimino)acetamido]-3-(1-methyl-1H-tetrazol-5-yl)thiomethyl-3-cephem-4-carboxylic acid]",0.2,3.12,0.05,0.2,0.2,0.05

# From patent publication US4691014A, “Cephalosporin compounds” (Kaken Pharmaceutical Co., Ltd., priority 1984, dated 1987)
